Measured values as given in ChEMBL document CHEMBL3885861, “Open TG-GATES”.

Organism: Rattus norvegicus
Assay: Open TG-GATES - Regimen: Single
Format: toxicity, organism-based, Sprague-Dawley
Parameters: regimen Single, gender Male, age 6 weeks
Conditions: in vivo, po, 450 mg/kg, route gavage, dose level Low; for APTT / Bas / Eos / Fbg / Hb / Ht / Lym / MCH / MCHC / MCV / Mono / Neu / Plat / RBC / Ret / WBC: tissue Blood; for KIDNEY_L / KIDNEY_R / KIDNEY_TOTAL: tissue Kidney; for LIVER: tissue Liver; for ALP / ALT / AST / BUN / CRE / Ca / Cl / DBIL / GLC / IP / K / LDH / Na / PL / RALB / TBIL / TC / TG / TP / gamma-GTP: tissue Plasma

CC(=O)Oc1ccccc1C(=O)O [ASPIRIN]
TERMINAL_BW (3 h): 217.1 g | APTT (3 h): 19.8 s | Bas (3 h): 0% | Eos (3 h): 1% | Fbg (3 h): 230.2 mg/dL | Hb (3 h): 13.8 g/dL | Ht (3 h): 38.5% | Lym (3 h): 70% | MCH (3 h): 21.2 pg | MCHC (3 h): 36% | MCV (3 h): 59 fL | Mono (3 h): 3.4% | Neu (3 h): 24.4% | Plat (3 h): 136.3 x10_4/uL | RBC (3 h): 653 x10_4/ul | Ret (3 h): 7.3% | WBC (3 h): 89.4 x10_2/uL | KIDNEY_L (3 h): 0.9 g | KIDNEY_R (3 h): 0.9 g | KIDNEY_TOTAL (3 h): 1.8 g | LIVER (3 h): 8.7 g | ALP (3 h): 1084 IU/L | ALT (3 h): 45 IU/L | AST (3 h): 85.8 IU/L | BUN (3 h): 14.4 mg/dL | CRE (3 h): 0.4 mg/dL | Ca (3 h): 9 mg/dL | Cl (3 h): 103.6 meq/L | DBIL (3 h): 0.06 mg/dL | GLC (3 h): 189.2 mg/dL | IP (3 h): 8.7 mg/dL | K (3 h): 3.3 meq/L | LDH (3 h): 228.8 IU/L | Na (3 h): 141.2 meq/L | PL (3 h): 96.6 mg/dL | RALB (3 h): 3.6 g/dL | TBIL (3 h): 0.1 mg/dL | TC (3 h): 60.4 mg/dL | TG (3 h): 20.4 mg/dL | TP (3 h): 5.7 g/dL | gamma-GTP (3 h): 1.2 IU/L | TERMINAL_BW (6 h): 218.6 g | APTT (6 h): 21.5 s | Bas (6 h): 0% | Eos (6 h): 0.8% | Fbg (6 h): 230.4 mg/dL | Hb (6 h): 13.9 g/dL | Ht (6 h): 38.2% | Lym (6 h): 71% | MCH (6 h): 22.2 pg | MCHC (6 h): 36.3% | MCV (6 h): 61.1 fL | Mono (6 h): 3.2% | Neu (6 h): 24% | Plat (6 h): 124.8 x10_4/uL | RBC (6 h): 626.8 x10_4/ul | Ret (6 h): 8.1% | WBC (6 h): 90.8 x10_2/uL | KIDNEY_L (6 h): 1 g | KIDNEY_R (6 h): 1 g | KIDNEY_TOTAL (6 h): 2 g | LIVER (6 h): 9 g | ALP (6 h): 834.4 IU/L | ALT (6 h): 34.8 IU/L | AST (6 h): 72.6 IU/L | BUN (6 h): 14.6 mg/dL | CRE (6 h): 0.4 mg/dL | Ca (6 h): 9.2 mg/dL | Cl (6 h): 105 meq/L | DBIL (6 h): 0.056 mg/dL | GLC (6 h): 204 mg/dL | IP (6 h): 7.7 mg/dL | K (6 h): 3.4 meq/L | LDH (6 h): 221.2 IU/L | Na (6 h): 141 meq/L | PL (6 h): 113.2 mg/dL | RALB (6 h): 3.5 g/dL | TBIL (6 h): 0.1 mg/dL | TC (6 h): 67.8 mg/dL | TG (6 h): 32.8 mg/dL | TP (6 h): 5.6 g/dL | gamma-GTP (6 h): 1 IU/L
